Results on two compounds are retold here after the kinase profiling compilation of Christmann-Franck et al. (2016).

What all share (test): KINOMEscan competition binding
What all share (conditions): compound 10.0 µM

In one assay the target is BUB1 (human) (UniProt O43683).
For assay [1], the system named is ALK (human), Q9UM73 [L1196M].
Assay [2] relates to ALK (human), Q9UM73 [C1156Y].
The target of a further assay is NEK10 (human) (UniProt Q6ZWH5).
NEK10 (human), sequence (Q6ZWH5 whole entry, looked up): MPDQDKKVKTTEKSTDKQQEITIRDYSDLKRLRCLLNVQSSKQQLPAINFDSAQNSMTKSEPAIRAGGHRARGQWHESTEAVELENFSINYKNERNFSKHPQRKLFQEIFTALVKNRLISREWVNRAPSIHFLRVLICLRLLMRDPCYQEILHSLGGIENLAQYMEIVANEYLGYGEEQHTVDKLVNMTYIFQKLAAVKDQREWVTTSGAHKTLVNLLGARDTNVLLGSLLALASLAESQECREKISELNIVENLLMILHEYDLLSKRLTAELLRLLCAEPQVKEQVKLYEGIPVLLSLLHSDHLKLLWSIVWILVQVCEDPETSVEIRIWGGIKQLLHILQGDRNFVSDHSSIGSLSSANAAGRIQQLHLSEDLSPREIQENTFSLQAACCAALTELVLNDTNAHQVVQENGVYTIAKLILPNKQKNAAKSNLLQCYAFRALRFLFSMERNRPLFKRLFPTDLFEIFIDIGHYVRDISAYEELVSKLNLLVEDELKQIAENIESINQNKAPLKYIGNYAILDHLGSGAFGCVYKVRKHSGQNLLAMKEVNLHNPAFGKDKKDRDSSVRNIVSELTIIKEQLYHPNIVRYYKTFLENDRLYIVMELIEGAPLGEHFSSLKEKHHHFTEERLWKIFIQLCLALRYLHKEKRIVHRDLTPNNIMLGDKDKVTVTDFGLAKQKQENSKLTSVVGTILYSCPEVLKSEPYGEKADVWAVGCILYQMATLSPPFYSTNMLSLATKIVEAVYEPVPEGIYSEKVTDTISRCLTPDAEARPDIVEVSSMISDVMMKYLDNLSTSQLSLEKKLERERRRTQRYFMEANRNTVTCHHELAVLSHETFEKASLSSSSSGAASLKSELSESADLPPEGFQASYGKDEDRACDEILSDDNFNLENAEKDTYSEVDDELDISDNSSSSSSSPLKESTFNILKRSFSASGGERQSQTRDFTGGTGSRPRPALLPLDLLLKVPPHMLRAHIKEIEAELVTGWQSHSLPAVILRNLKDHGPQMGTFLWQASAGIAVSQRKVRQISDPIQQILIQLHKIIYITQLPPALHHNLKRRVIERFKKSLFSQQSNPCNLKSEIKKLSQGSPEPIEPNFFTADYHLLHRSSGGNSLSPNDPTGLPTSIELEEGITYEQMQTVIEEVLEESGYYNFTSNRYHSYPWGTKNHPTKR

BUB1 (human), sequence (O43683 whole entry, looked up): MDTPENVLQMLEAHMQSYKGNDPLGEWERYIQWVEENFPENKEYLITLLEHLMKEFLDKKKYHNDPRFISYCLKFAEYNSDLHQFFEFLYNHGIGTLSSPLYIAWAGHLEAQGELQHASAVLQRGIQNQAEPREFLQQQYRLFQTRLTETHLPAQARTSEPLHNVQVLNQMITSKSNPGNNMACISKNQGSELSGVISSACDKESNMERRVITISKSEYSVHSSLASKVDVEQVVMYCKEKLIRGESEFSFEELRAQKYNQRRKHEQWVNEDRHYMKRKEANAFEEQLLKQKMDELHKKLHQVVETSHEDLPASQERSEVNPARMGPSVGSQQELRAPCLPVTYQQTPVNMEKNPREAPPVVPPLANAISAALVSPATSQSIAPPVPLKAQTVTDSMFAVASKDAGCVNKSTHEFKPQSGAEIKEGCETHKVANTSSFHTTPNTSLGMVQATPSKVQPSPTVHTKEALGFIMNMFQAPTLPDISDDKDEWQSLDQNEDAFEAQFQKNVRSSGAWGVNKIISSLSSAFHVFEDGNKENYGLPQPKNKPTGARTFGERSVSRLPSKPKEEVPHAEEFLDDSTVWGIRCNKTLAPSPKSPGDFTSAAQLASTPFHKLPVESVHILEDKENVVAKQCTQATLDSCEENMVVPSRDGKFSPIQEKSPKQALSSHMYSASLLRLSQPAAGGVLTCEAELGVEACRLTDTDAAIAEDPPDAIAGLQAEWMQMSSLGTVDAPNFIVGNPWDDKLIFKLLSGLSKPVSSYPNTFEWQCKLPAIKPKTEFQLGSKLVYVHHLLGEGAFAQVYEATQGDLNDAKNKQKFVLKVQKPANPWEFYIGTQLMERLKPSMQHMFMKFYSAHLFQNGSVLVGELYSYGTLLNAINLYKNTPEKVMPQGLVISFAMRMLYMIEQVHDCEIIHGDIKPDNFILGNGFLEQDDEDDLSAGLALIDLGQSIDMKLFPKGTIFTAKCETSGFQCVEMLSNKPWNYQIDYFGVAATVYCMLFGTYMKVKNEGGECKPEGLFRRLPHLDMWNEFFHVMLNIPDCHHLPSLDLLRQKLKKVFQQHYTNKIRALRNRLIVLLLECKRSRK
ALK (human), Q9UM73 [C1156Y], sequence (Q9UM73 whole entry C1156Y, looked up): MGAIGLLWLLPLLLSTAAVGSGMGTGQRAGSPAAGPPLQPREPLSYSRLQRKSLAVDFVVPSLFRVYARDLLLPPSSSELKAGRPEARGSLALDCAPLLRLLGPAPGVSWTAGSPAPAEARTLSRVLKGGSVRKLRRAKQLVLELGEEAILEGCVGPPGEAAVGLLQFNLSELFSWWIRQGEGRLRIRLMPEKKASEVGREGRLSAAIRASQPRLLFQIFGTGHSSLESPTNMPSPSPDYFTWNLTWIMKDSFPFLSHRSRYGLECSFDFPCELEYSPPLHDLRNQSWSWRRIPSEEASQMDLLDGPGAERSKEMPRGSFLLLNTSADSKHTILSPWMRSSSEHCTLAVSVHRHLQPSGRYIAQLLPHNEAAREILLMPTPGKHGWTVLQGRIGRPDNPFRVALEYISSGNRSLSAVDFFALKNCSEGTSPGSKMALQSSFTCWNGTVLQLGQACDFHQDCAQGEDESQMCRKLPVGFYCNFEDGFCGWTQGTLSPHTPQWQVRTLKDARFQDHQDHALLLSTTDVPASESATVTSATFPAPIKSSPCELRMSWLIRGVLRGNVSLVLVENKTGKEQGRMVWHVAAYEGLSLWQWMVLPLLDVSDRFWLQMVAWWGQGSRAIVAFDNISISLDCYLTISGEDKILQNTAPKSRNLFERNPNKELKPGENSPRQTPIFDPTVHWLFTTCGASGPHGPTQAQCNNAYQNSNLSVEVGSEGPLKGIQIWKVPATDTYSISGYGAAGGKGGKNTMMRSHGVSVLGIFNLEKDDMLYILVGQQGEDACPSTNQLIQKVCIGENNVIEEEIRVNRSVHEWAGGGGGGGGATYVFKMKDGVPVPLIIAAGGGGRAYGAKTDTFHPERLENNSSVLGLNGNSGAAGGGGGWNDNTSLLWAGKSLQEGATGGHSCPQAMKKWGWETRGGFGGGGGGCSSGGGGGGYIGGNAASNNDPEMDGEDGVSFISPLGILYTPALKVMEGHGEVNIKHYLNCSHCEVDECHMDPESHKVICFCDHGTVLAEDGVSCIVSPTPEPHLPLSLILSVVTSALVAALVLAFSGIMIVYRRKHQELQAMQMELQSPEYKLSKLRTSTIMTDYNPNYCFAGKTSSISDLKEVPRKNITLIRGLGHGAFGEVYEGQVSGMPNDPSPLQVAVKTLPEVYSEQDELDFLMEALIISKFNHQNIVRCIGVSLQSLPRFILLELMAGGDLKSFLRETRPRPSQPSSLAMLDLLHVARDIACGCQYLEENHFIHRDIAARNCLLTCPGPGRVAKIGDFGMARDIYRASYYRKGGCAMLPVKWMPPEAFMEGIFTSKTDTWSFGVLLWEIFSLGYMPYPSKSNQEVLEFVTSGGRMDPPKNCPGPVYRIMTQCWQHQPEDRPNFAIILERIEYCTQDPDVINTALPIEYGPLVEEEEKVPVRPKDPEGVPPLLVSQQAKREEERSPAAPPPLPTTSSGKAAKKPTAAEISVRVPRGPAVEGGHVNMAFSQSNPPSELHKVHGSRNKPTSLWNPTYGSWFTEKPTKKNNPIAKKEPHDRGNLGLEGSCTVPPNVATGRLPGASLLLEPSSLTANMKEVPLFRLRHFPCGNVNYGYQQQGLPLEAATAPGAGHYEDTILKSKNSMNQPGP
ALK (human), Q9UM73 [L1196M], sequence (Q9UM73 whole entry L1196M, looked up): as the sequence (Q9UM73 whole entry C1156Y, looked up) above, with Y1156C, L1196M counted along it

The compound `N#CCNC(=O)c1ccc(-c2ccnc(Nc3ccc(N4CCOCC4)cc3)n2)cc1` gave a kinase still bound, per cent of control on BUB1 (human) of 3.5%.

`O=C1NC(=O)/C(=C/c2ccc3nccc(-c4ccncc4)c3c2)S1`: the kinase still bound, per cent of control in assay [1] was determined as 45%; on BUB1 (human), 12%; in assay [2], 42%; on NEK10 (human) it was 0%.
